# According to PubChem BioAssay AID844 (SRMLSC, 2007):
# The source made the active and inactive calls. The rule behind the calls is not given here.
# System: MRP1 cells, doxorubicin viability shift, 10 uM compound
# Assay: viability protection against doxorubicin, MRP-1 line – cell-based, doxorubicin EC50 shift, dose response (AID 844)
# Conditions: for EC50: measured here: doxorubicin EC50 with compound
SMILES,fold increase in Dox EC50,EC50
Cn1c(=O)c2c(nc(OCc3ccccc3)n2C)n(C)c1=O,0.7 (inactive),3.78 µM
CCN(CC)CCN(Cc1cc2cc(C)cc(C)c2[nH]c1=O)C(=S)NCc1ccco1,0.19 (inactive),1.03 µM
Cc1c(C(=O)OC2CCC(C)CC2)[nH]c2c1C(=O)CCC2 (stereo unspecified),0.93 (inactive),5.01 µM
COc1ccc(C2CC(c3ccc(Cl)cc3)n3nc(N)nc3N2)cc1 (stereo unspecified),0.65 (inactive),3.52 µM
Cc1cc(C)c(NC(=O)c2sc3nc4c(cc3c2N)C(=O)CC(C)(C)C4)c(C)c1,0.7 (inactive),3.76 µM
Cc1cc2n(n1)C(c1ccccc1)CC(c1ccc(Br)cc1)=N2 (stereo unspecified),0.76 (inactive),4.12 µM
CCn1c(COc2ccc(C)cc2)nnc1SCc1nc2ccccc2[nH]1,0.88 (inactive),4.76 µM
Cc1ccc(C(=O)Nc2nnc(C)s2)o1,1.32 (inactive),7.14 µM
CCN(CC(=O)NC(C)C)C(=O)c1ccc(Cl)cc1,0.45 (inactive),2.41 µM
O=C(Cn1c(=O)c2c(ncn2Cc2ccccc2)n(Cc2ccccc2)c1=O)N1CCc2ccccc21,1.07 (inactive),5.76 µM
CC(=O)N1CCN=C1SCc1ccccc1F,0.78 (inactive),4.2 µM
CCOc1ccc(Cn2nnc(C(=O)NCCc3ccc(Cl)cc3)c2N)cc1,1.6,8.64 µM
CC(=O)c1ccc(NC(=O)CCCN2C(=O)/C(=C/C(C)=C/c3ccccc3)SC2=S)cc1,0.19 (inactive),1.01 µM
CCn1c(CNC(=O)COc2ccc(C(C)C)cc2)nnc1SCC(=O)Nc1ccccc1C(C)C,1.04 (inactive),5.63 µM
Cc1cccc(Cc2cnc(NC(=O)CN3C(=O)/C(=C/c4ccccc4)SC3=S)s2)c1,1.53,8.25 µM
CC(OC(=O)c1snc(C(=O)NC2CCCCC2)c1N)C(=O)NC(C)(C)C (stereo unspecified),1.1 (inactive),5.93 µM
O=C(N/N=C/c1ccccn1)c1cc(-c2ccc3ccccc3c2)n[nH]1,0.75 (inactive),4.04 µM
Cc1ccc(C(=O)NNC(=O)c2ccc(SCC3CCCO3)c([N+](=O)[O-])c2)cc1 (stereo unspecified),0.56 (inactive),3.01 µM
COc1ccc(-c2cc(C(=O)Nc3sc4c(c3C#N)CCCC4)c3ccccc3n2)cc1,1.18 (inactive),6.37 µM
O=C(Nc1ncc(Cc2ccccc2Cl)s1)c1ccc(-c2cccc([N+](=O)[O-])c2)o1,0.81 (inactive),4.38 µM
c1ccc(-n2ncc3c(NCc4cccnc4)ncnc32)cc1,0.57 (inactive),3.09 µM
Cc1ccc(/C=N/NC(=O)CSCc2ccc(Cl)cc2)cc1,1.19 (inactive),6.44 µM
Cc1cc(C)cc(NC(=O)c2oc3ccccc3c2COc2ccccc2)c1,0.88 (inactive),4.78 µM
CCNc1ccc(C(=O)OCC(=O)c2cc(C)n(Cc3ccc4c(c3)OCO4)c2C)cc1[N+](=O)[O-],1.06 (inactive),5.74 µM
Cc1nn(Cc2c(F)c(F)c(F)c(F)c2F)c(C)c1NC(=O)c1ccc(COc2ccc(F)cc2)o1,1 (inactive),5.42 µM

SMILES,fold increase in Dox EC50,EC50
Cc1ccc(OCc2nnc(SCC(=O)N3c4ccccc4Sc4ccc(Cl)cc43)o2)cc1,0.85 (inactive),4.57 µM
CC(=O)N1CCN=C1SCc1ccc(Br)cc1,0.97 (inactive),5.26 µM
CCCn1c(C)cc(/C=C(\C#N)C(=O)OCC(=O)Nc2ccc(OC)c(Cl)c2)c1C,0.7 (inactive),3.81 µM
CCN(Cc1ccccc1)C(=O)CSc1nc(C)cc(C)c1C#N,0.59 (inactive),3.19 µM
CC(=O)Nc1ccc(-n2c(C)nc(=O)c(-c3ccccc3)c2C)cc1,0.89 (inactive),4.83 µM
O=C(CSc1ncn[nH]1)NC12CC3CC(CC(C3)C1)C2,0.64 (inactive),3.43 µM
COc1ccc(/C=C2/N=C(SC3CCOC3=O)N(c3cccc(OC)c3)C2=O)cc1 (stereo unspecified),0.68 (inactive),3.67 µM
O=C(COc1ccc(F)cc1)Nc1ccc(-n2cnnn2)cc1,0.75 (inactive),4.04 µM
Oc1c(C=C2N=c3ccccc3=N2)sc(=S)n1-c1ccc(F)cc1,0.63 (inactive),3.39 µM
O=C(c1ccc(COc2ccc(Cl)cc2)o1)N1N=C(C(F)F)CC1(O)C(F)F (stereo unspecified),1.44 (inactive),7.77 µM
CCc1c(C)sc(NC(=O)c2cc(CC(C)C)on2)c1C#N,0.64 (inactive),3.45 µM
Cc1ccc(N2C(=O)C3C(c4ccccc4)(C2=O)C3(c2ccccc2)c2ccccc2)cc1 (stereo unspecified),0.22 (inactive),1.16 µM
COc1ccc(CNc2nc(NCc3ccc(OC)cc3)n(C(=O)c3ccccc3[N+](=O)[O-])n2)cc1,0.72 (inactive),3.9 µM
CC(C)CNC(=O)c1c(N)n(/N=C/c2ccccn2)c2nc3ccccc3nc12,0.94 (inactive),5.08 µM
CCC1(C)Cc2c(sc3nnn(CC(=O)Nc4ccc(Cl)cc4)c(=O)c23)CO1 (stereo unspecified),0.2 (inactive),1.09 µM
N#Cc1nc(COc2ccc(F)cc2)oc1N1CCC(Cc2ccccc2)CC1,0.99 (inactive),5.35 µM
COc1cc(NS(=O)(=O)c2ccc(C)cc2)ccc1-n1cnnn1,1.02 (inactive),5.51 µM
O=C(/C(=C/O)N=Nc1ccccc1)c1ccncc1,1.4 (inactive),7.54 µM
CSc1ncc(Cl)c(C(=O)Nc2nnc(SC)s2)n1,1.12 (inactive),6.07 µM
O=C(NCC1(c2ccccc2)CCOCC1)c1ccc(Br)o1,1.3 (inactive),7.01 µM
CC(O)(CS(=O)(=O)Cc1ccccc1)C(=O)Nc1ccc(C(F)(F)F)cc1 (stereo unspecified),1.27 (inactive),6.84 µM
O=C(COC(=O)c1c(Cl)cccc1Cl)Nc1cc(Cl)ccc1Oc1ccccc1,0.36 (inactive),1.97 µM
Cc1ccc(C(=O)CCC(=O)Nc2ccc(Cl)c(S(=O)(=O)Nc3cccc(Cl)c3)c2)cc1,1.15 (inactive),6.21 µM
COc1ccc(-c2nn(-c3ccccc3)cc2C(=O)Nc2nc(CC(C)=O)ns2)cc1,0.99 (inactive),5.32 µM
N#C/C(=N\Nc1ccccc1)C(=N)N1CCOCC1,1.15 (inactive),6.23 µM

SMILES,fold increase in Dox EC50,EC50
O=C(NCC(F)(F)F)Nc1nnc(C(F)(F)F)s1,1.54,8.33 µM
Cc1ccc(S(=O)(=O)N/N=C\c2cn(-c3ccccc3)nc2-c2ccccc2)cc1,1.38 (inactive),7.44 µM
Cc1ccc2nc(Nc3nc(CSc4nc5ccccc5s4)cc(=O)[nH]3)nc(C)c2c1,1.08 (inactive),5.81 µM
CCC1SC2=NC(C)=C(C(=O)OCCOC)C(c3ccc(C(=O)OC)cc3)N2C1=O (stereo unspecified),0.92 (inactive),4.98 µM
O=C(Nc1ccc(C2CC2(Cl)Cl)cc1)c1ccccc1Br (stereo unspecified),1.6,8.66 µM
Cc1cc(C)nc(NS(=O)(=O)c2ccc(NC(=O)c3ccc4c(c3)OCO4)cc2)n1,0.94 (inactive),5.05 µM
Cc1cccc(C)c1-n1c(C)cc(/C=C2\C(=O)NN(c3ccccc3)C2=O)c1C,0.63 (inactive),3.39 µM
CCOC(=O)C1=C(C)Nc2sc(C(=O)c3ccc(OC)cc3)c(N)c2C1c1ccc(C(=O)OC)cc1 (stereo unspecified),0.2 (inactive),1.09 µM
COc1ccc(Cl)cc1NC(=O)CSc1nnc(COc2ccccc2)n1N,0.86 (inactive),4.64 µM
Cc1nc2cc(-c3ccsc3-n3c(C)ccc3C)[nH]n2c(=O)c1Cl,0.74 (inactive),4 µM
Cc1ccc(C)c(N2CCN(C(=O)Cc3ccc(-n4c(=O)[nH]c5ccsc5c4=O)cc3)CC2)c1,0.58 (inactive),3.12 µM
O=C(c1ccco1)N1CCN(c2nc(C3CC3)nc3c2nnn3Cc2ccccc2Cl)CC1,0.32 (inactive),1.7 µM
Cc1ccc(C)c(N2CCN(C(=O)c3ccc4nc(-c5ccco5)c(-c5ccco5)nc4c3)CC2)c1,0.79 (inactive),4.25 µM
CCc1nnc(NC(=O)[C@@H](NC(=O)c2cccc(S(=O)(=O)N(CC)CC)c2)C(C)C)s1,0.4 (inactive),2.18 µM
Cc1ccc(-c2nc(C3CCCN(S(=O)(=O)c4ccc(C)cc4)C3)no2)cc1 (stereo unspecified),1.08 (inactive),5.85 µM
O=C(NN1C(=O)/C(=C\c2cccnc2)SC1=S)C(c1ccccc1)c1ccccc1,0.84 (inactive),4.56 µM
C=C1c2cc(CC)ccc2NC(=O)N1c1ccc(C)cc1,0.44 (inactive),2.37 µM
Cc1cccc(-n2ncc3c(N4CC(C)CC(C)C4)ncnc32)c1 (stereo unspecified),0.6 (inactive),3.25 µM
O=C(NC1CCCCCC1)c1nnc(Cc2ccc(Cl)cc2)o1,0.78 (inactive),4.21 µM
O=C(/C=C/NNC(=O)c1ccccc1)c1ccc(Br)cc1,0.53 (inactive),2.86 µM
O=C(CSc1ncn[nH]1)NCCC(c1ccccc1)c1ccccc1,0.56 (inactive),3.03 µM
CCOC(=O)N1CCN(c2nc(-c3cccc(OC)c3)cc(C(F)(F)F)n2)CC1,1.11 (inactive),6.02 µM
O=C1OC(Nc2ccccn2)c2ccccc21 (stereo unspecified),0.81 (inactive),4.35 µM
